The results in this text go back to patent US12723063B2, “GIPR-agonist compounds” (Eli Lilly and Company, priority 2019, dated 2026).

Test [1] concerns the target T1, human GcgR (Homo sapiens, UniProt P47871).
T1 construct: expressed in transfected cells; crude membranes
Put plainly: [125I]-Glucagon binding, SPA with WGA beads, 0.1% bacitracin. The note with it: geometric mean, read-out: hGcgR Ki. The procedure, abridged: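 SPA competition binding with WGA beads on crude membranes from HEK293 cells stably expressing hGcgR. Buffer: 25 mM HEPES pH 7.4, 2.5 mM CaCl2, 1 mM MgCl2, 0.1% bacitracin, 0.003% Tween-20; 10-point 3-fold dilutions, NSB with 1 μM Gcg.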

Test [2] has as its target T2, human GIPR (Homo sapiens, UniProt P48546).
T2 construct: expressed in transfected cells; crude membranes
T2 sequence (P48546 22-466): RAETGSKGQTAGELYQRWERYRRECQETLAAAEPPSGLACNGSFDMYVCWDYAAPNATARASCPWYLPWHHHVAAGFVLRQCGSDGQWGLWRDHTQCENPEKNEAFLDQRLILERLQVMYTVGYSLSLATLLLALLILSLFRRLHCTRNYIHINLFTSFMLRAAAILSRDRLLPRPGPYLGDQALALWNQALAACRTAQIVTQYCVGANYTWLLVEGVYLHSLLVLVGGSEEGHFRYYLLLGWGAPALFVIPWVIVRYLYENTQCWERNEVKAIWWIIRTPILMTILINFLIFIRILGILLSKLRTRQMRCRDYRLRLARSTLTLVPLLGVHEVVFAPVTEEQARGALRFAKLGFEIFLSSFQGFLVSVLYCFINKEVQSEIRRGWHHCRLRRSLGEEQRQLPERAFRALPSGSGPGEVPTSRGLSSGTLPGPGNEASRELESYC
Put plainly: [125I]-GIP binding, SPA with WGA beads, 0.1% bacitracin. The conditions noted are these: geometric mean, read-out: hGIPR Ki. In outline:
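Ki values are geometric means (SEM, n independent days), derived from four-parameter nonlinear regression of IC50. Membranes came from hGIPR-expressing CHO cells.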

Test [3] addresses T3, human GLP-1R (Homo sapiens, UniProt P43220).
T3 construct: expressed in transfected cells; crude membranes
Put plainly: [125I]-GLP-1 binding, SPA with WGA beads, 0.1% bacitracin. The conditions noted are these: geometric mean, read-out: hGLP1R Ki. In outline:
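Binding buffer was 25 mM HEPES pH 7.4 with 2.5 mM CaCl2, 1 mM MgCl2, 0.1% (w/v) bacitracin, 0.003% Tween-20 and EDTA-free protease inhibitors. Four-parameter regression gave IC50, converted to Ki (geometric mean, SEM, n independent days).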

Each structure is given as a SMILES string. *1 amine or outer side, *2 acyl side, *3 side chain or, on linkers, in order; H or OH if unused. Where a SMILES comes first, the peptide text is derived from it. Side-chain parts run from the residue outwards. [ ]: non-standard residue; d: D form. The star is where a group is joined. C20 diacid = O=C(O)CCCCCCCCCCCCCCCCCCC(=O)*; γGlu = O=C(O)[C@H](CCC(=O)[*:2])N[*:1]; 4Pal = N[C@@H](Cc1ccncc1)C(=O)O; αMeL = CC(C)C[C@](C)(N)C(=O)O; AEEA = NCCOCCOCC(=O)O; Aib = CC(C)(N)C(=O)O

T3 sequence (P43220 24-463): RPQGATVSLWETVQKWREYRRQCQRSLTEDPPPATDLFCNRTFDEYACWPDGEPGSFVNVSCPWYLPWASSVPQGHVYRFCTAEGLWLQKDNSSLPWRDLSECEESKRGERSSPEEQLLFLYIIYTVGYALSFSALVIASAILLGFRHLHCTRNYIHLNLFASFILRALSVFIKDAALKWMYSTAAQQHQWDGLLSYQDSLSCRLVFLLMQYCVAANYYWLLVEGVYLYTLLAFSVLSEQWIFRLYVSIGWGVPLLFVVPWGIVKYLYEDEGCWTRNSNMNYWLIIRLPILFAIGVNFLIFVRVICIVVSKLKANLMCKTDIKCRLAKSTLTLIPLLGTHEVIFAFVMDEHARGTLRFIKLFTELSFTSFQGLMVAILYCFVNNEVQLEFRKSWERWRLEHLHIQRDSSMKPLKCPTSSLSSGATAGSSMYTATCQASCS
T1 sequence (P47871 26-477): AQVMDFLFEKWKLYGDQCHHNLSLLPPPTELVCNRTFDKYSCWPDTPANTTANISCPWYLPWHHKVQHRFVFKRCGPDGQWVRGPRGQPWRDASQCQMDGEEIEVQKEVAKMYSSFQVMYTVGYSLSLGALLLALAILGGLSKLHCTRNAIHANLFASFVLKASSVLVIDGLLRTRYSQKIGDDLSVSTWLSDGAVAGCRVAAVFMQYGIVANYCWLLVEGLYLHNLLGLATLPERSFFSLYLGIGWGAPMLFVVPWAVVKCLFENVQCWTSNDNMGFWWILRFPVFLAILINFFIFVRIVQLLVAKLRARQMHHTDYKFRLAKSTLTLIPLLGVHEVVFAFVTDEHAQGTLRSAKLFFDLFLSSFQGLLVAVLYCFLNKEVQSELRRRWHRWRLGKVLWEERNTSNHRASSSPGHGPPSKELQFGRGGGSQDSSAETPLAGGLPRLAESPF

Usually Ki stands for the equilibrium dissociation constant of an inhibitor or competing ligand from its target. Take `CC[C@H](C)[C@H](NC(=O)[C@H](Cc1ccccc1)NC(=O)[C@@H](NC(=O)CNC(=O)[C@H](CCC(=O)O)NC(=O)C(C)(C)NC(=O)[C@@H](N)Cc1ccc(O)cc1)[C@@H](C)O)C(=O)N[C@@H](CO)C(=O)N[C@@H](CC(=O)O)C(=O)N[C@@H](Cc1ccc(O)cc1)C(=O)N[C@@H](CO)C(=O)N[C@H](C(=O)N[C@@](C)(CC(C)C)C(=O)N[C@@H](CC(C)C)C(=O)N[C@@H](CC(=O)O)C(=O)N[C@@H](CCCCN)C(=O)N[C@@H](CCCCNC(=O)COCCOCCNC(=O)COCCOCCNC(=O)CC[C@H](NC(=O)CCCCCCCCCCCCCCCCCCC(=O)O)C(=O)O)C(=O)N[C@@H](Cc1c[nH]cn1)C(=O)N[C@@H](CCC(N)=O)C(=O)NC(C)(C)C(=O)N[C@@H](CCC(=O)O)C(=O)N[C@@H](Cc1ccccc1)C(=O)N[C@H](C(=O)N[C@@H](CCC(=O)O)C(=O)N[C@@H](Cc1ccc(O)cc1)C(=O)N[C@@H](CC(C)C)C(=O)N[C@@H](CC(C)C)C(=O)N[C@@H](CCC(=O)O)C(=O)N[C@@H](C)C(=O)NCC(=O)N1CCC[C@H]1C(=O)N[C@@H](CO)C(=O)N[C@@H](CO)C(=O)NCC(=O)N[C@@H](C)C(=O)N1CCC[C@H]1C(=O)N1CCC[C@H]1C(=O)N1CCC[C@H]1C(=O)N[C@@H](CO)C(N)=O)C(C)C)[C@@H](C)CC` [Example 65] (H-Y[Aib]EGTFISDYSI[αMeL]LDKK([AEEA-AEEA-γGlu-C20 diacid])HQ[Aib]EFVEYLLEAGPSSGAPPPS-NH2): the Ki in test [1] came out at 279 nM; in test [2], 0.0316 nM; in test [3], 305 nM.

For the compound `CC[C@H](C)[C@H](NC(=O)[C@H](Cc1ccccc1)NC(=O)[C@@H](NC(=O)CNC(=O)[C@H](CCC(=O)O)NC(=O)C(C)(C)NC(=O)[C@@H](N)Cc1ccc(O)cc1)[C@@H](C)O)C(=O)N[C@@H](CO)C(=O)N[C@@H](CC(=O)O)C(=O)N[C@@H](Cc1ccc(O)cc1)C(=O)N[C@@H](CO)C(=O)N[C@H](C(=O)N[C@@](C)(CC(C)C)C(=O)N[C@@H](CC(C)C)C(=O)N[C@@H](CC(=O)O)C(=O)N[C@@H](CCCCN)C(=O)N[C@@H](CCCCNC(=O)COCCOCCNC(=O)COCCOCCNC(=O)CC[C@H](NC(=O)CCCCCCCCCCCCCCCCCCC(=O)O)C(=O)O)C(=O)N[C@@H](Cc1c[nH]cn1)C(=O)N[C@@H](CCC(N)=O)C(=O)NC(C)(C)C(=O)N[C@@H](CC(=O)O)C(=O)N[C@@H](Cc1ccccc1)C(=O)N[C@H](C(=O)N[C@@H](CCC(=O)O)C(=O)N[C@@H](Cc1ccc(O)cc1)C(=O)N[C@@H](CC(C)C)C(=O)N[C@@H](CC(C)C)C(=O)N[C@@H](CCC(=O)O)C(=O)N[C@H](C(=O)NCC(=O)N1CCC[C@H]1C(=O)N[C@@H](CO)C(=O)N[C@@H](CO)C(=O)NCC(=O)N[C@@H](C)C(=O)N1CCC[C@H]1C(=O)N1CCC[C@H]1C(=O)N1CCC[C@H]1C(=O)N[C@@H](CO)C(N)=O)[C@@H](C)O)C(C)C)[C@@H](C)CC` [Example 66] (H-Y[Aib]EGTFISDYSI[αMeL]LDKK([AEEA-AEEA-γGlu-C20 diacid])HQ[Aib]DFVEYLLETGPSSGAPPPS-NH2), the Ki in test [1] is 279 nM; in test [2] it was 0.0866 nM; in test [3], 326 nM.

In the case of `CC[C@H](C)[C@H](NC(=O)[C@H](Cc1ccccc1)NC(=O)[C@@H](NC(=O)CNC(=O)[C@H](CCC(=O)O)NC(=O)C(C)(C)NC(=O)[C@@H](N)Cc1ccc(O)cc1)[C@@H](C)O)C(=O)N[C@@H](CO)C(=O)N[C@@H](CC(=O)O)C(=O)N[C@@H](Cc1ccc(O)cc1)C(=O)N[C@@H](CO)C(=O)N[C@H](C(=O)N[C@@](C)(CC(C)C)C(=O)N[C@@H](CC(C)C)C(=O)N[C@@H](CC(=O)O)C(=O)N[C@@H](CCCCN)C(=O)N[C@@H](CCCCNC(=O)COCCOCCNC(=O)COCCOCCNC(=O)CC[C@H](NC(=O)CCCCCCCCCCCCCCCCCCC(=O)O)C(=O)O)C(=O)N[C@@H](Cc1c[nH]cn1)C(=O)N[C@@H](CCC(N)=O)C(=O)NC(C)(C)C(=O)N[C@@H](CC(=O)O)C(=O)N[C@@H](Cc1ccccc1)C(=O)N[C@H](C(=O)N[C@@H](CCC(=O)O)C(=O)N[C@@H](Cc1ccc(O)cc1)C(=O)N[C@@H](CC(C)C)C(=O)N[C@@H](CC(C)C)C(=O)N[C@@H](CCC(=O)O)C(=O)N[C@@H](C)C(=O)NCC(=O)N1CCC[C@H]1C(=O)N[C@@H](CO)C(=O)N[C@@H](CO)C(=O)NCC(=O)N[C@@H](C)C(=O)N1CCC[C@H]1C(=O)N1CCC[C@H]1C(=O)N1CCC[C@H]1C(=O)N[C@@H](CO)C(N)=O)C(C)C)[C@@H](C)CC` [Example 68] (H-Y[Aib]EGTFISDYSI[αMeL]LDKK([AEEA-AEEA-γGlu-C20 diacid])HQ[Aib]DFVEYLLEAGPSSGAPPPS-NH2), the figures for the Ki in test [1], in test [2] and in test [3] were 290 nM, 0.0948 nM and 421 nM, respectively.

In the case of `CC[C@H](C)[C@H](NC(=O)[C@H](Cc1ccccc1)NC(=O)[C@@H](NC(=O)CNC(=O)[C@H](CCC(=O)O)NC(=O)C(C)(C)NC(=O)[C@@H](N)Cc1ccc(O)cc1)[C@@H](C)O)C(=O)N[C@@H](CO)C(=O)N[C@@H](CC(=O)O)C(=O)N[C@@H](Cc1ccc(O)cc1)C(=O)N[C@@H](CO)C(=O)N[C@H](C(=O)N[C@@](C)(CC(C)C)C(=O)N[C@@H](CC(C)C)C(=O)N[C@@H](CC(=O)O)C(=O)N[C@@H](CCCCN)C(=O)N[C@@H](CCCCNC(=O)COCCOCCNC(=O)COCCOCCNC(=O)CC[C@H](NC(=O)CCCCCCCCCCCCCCCCCCC(=O)O)C(=O)O)C(=O)N[C@@H](Cc1c[nH]cn1)C(=O)N[C@@H](CCC(N)=O)C(=O)NC(C)(C)C(=O)N[C@@H](CC(=O)O)C(=O)N[C@@H](Cc1ccccc1)C(=O)N[C@H](C(=O)N[C@@H](CCC(=O)O)C(=O)N[C@@H](Cc1ccc(O)cc1)C(=O)N[C@@H](CC(C)C)C(=O)N[C@@H](CC(C)C)C(=O)N[C@@H](CCC(=O)O)C(=O)NCC(=O)NCC(=O)N1CCC[C@H]1C(=O)N[C@@H](CO)C(=O)N[C@@H](CO)C(=O)NCC(=O)N[C@@H](C)C(=O)N1CCC[C@H]1C(=O)N1CCC[C@H]1C(=O)N1CCC[C@H]1C(=O)N[C@@H](CO)C(N)=O)C(C)C)[C@@H](C)CC` [Example 69] (H-Y[Aib]EGTFISDYSI[αMeL]LDKK([AEEA-AEEA-γGlu-C20 diacid])HQ[Aib]DFVEYLLEGGPSSGAPPPS-NH2), the Ki worked out at 114 nM in test [1], 0.0406 nM in test [2] and 144 nM in test [3].

Consider `CC[C@H](C)[C@H](NC(=O)[C@H](Cc1ccccc1)NC(=O)[C@@H](NC(=O)CNC(=O)[C@H](CCC(=O)O)NC(=O)C(C)(C)NC(=O)[C@@H](N)Cc1ccc(O)cc1)[C@@H](C)O)C(=O)N[C@@H](CO)C(=O)N[C@@H](CC(=O)O)C(=O)N[C@@H](Cc1ccc(O)cc1)C(=O)N[C@@H](CO)C(=O)N[C@H](C(=O)N[C@@](C)(CC(C)C)C(=O)N[C@@H](CC(C)C)C(=O)N[C@@H](CC(=O)O)C(=O)N[C@@H](CCCCN)C(=O)N[C@@H](CCCCNC(=O)COCCOCCNC(=O)COCCOCCNC(=O)CC[C@H](NC(=O)CCCCCCCCCCCCCCCCCCC(=O)O)C(=O)O)C(=O)N[C@@H](Cc1c[nH]cn1)C(=O)N[C@@H](CCC(N)=O)C(=O)NC(C)(C)C(=O)N[C@@H](CC(=O)O)C(=O)N[C@@H](Cc1ccccc1)C(=O)N[C@H](C(=O)N[C@@H](CCC(=O)O)C(=O)N[C@@H](Cc1ccncc1)C(=O)N[C@@H](CC(C)C)C(=O)N[C@@H](CC(C)C)C(=O)N[C@@H](C)C(=O)N[C@H](C(=O)NCC(=O)N1CCC[C@H]1C(=O)N[C@@H](CO)C(=O)N[C@@H](CO)C(=O)NCC(=O)N[C@@H](C)C(=O)N1CCC[C@H]1C(=O)N1CCC[C@H]1C(=O)N1CCC[C@H]1C(=O)N[C@@H](CO)C(N)=O)[C@@H](C)O)C(C)C)[C@@H](C)CC` [Example 70] (H-Y[Aib]EGTFISDYSI[αMeL]LDKK([AEEA-AEEA-γGlu-C20 diacid])HQ[Aib]DFVE[4Pal]LLATGPSSGAPPPS-NH2), for which the Ki worked out at 857 nM in test [1], 0.0421 nM in test [2] and 570 nM in test [3].
